Measured values: US10597388B2, “Pyridazinone herbicides” (FMC CORPORATION, priority 2014, dated 2020)

Key:
Assay in all cases: Test D controlled growth environment herbicide test, pre- and postemergence
Assay type in all cases: in vivo
[1] = test system: field violet (Viola arvensis)
Outline: (§1)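 Rating is visual, 0–100 scale (100 = complete control), made against untreated plants 14–21 d after treatment in controlled growth conditions. Postemergence sprays went onto 1- to 4-leaf plants in peat medium; preemergence sprays onto silt loam after sowing; formulation included a surfactant.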

[2] = test system: Russian thistle (Salsola kali)
Outline: as §1

[3] = test system: windgrass (Apera spica-venti)
Outline: as §1

[4] = test system: blackgrass (Alopecurus myosuroides)
Outline: as §1

[5] = test system: ryegrass, Italian (Italian ryegrass, Lolium multiflorum)
Outline: as §1

[6] = test system: field poppy (Papaver rhoeas)
Outline: as §1

[7] = test system: wheat, spring (spring wheat, Triticum aestivum)
Outline: as §1

[8] = test system: chickweed (common chickweed, Stellaria media)
Outline: as §1

[9] = test system: oilseed rape (Brassica napus)
Outline: as §1

[10] = test system: pigweed (Amaranthus retroflexus)
Outline: as §1

[11] = test system: wheat, winter (winter wheat, Triticum aestivum)
Outline: as §1

[12] = test system: deadnettle (henbit deadnettle, Lamium amplexicaule)
Outline: as §1

[13] = test system: radish, wild (wild radish, Raphanus raphanistrum)
Outline: as §1

[14] = Postemergence, 31 g ai/ha, scale 0 to 100 (0 no effect, 100 complete control)
[15] = Postemergence, 125 g ai/ha, visual rating on scale 0 (no effect) to 100 (complete control), 14 to 21 d
[16] = Postemergence, 250 g ai/ha, scale 0 to 100 (0 no effect, 100 complete control)
[17] = Preemergence, 125 g ai/ha, scale 0 to 100 (0 no effect, 100 complete control)
[18] = Preemergence, 250 g ai/ha, scale 0 to 100 (0 no effect, 100 complete control)
[19] = postemergence, 62 g ai/ha, scale 0 to 100, 0 no effect, 100 complete control

Structure (SMILES): Cc1cc(C)c2sc(C)c(-c3c(OC(=O)OCCCl)c(C)nn(C)c3=O)c2c1 [Compound 85]
- Field Violet plant response rating [1, 14]: 65
- Plant response rating, Field Violet [1, 15]: 75
- Plant response rating, Field Violet [1, 16]: 90
- Plant response rating (scale of 0 to 100), Field Violet ([1]; Preemergence, 31 g ai/ha): 65
- Plant response rating (scale of 0 to 100), Field Violet ([1]; Preemergence, 62 g ai/ha): 70
- Plant response rating, Field Violet [1, 17]: 95
- Plant response rating, Field Violet [1, 18]: 100
- Plant response rating, Field Violet [1, 19]: 65
- Russian Thistle plant response rating [2, 14]: 65
- Plant response rating, Russian Thistle [2, 15]: 80
- Plant response rating, Russian Thistle [2, 16]: 90
- Plant response rating (scale of 0 to 100), Russian Thistle ([2]; Preemergence, 31 g ai/ha): 5
- Plant response rating (scale of 0 to 100), Russian Thistle ([2]; Preemergence, 62 g ai/ha): 10
- Plant response rating, Russian Thistle [2, 17]: 25
- Plant response rating, Russian Thistle [2, 18]: 75
- Plant response rating, Russian Thistle [2, 19]: 75
- Windgrass plant response rating [3, 14]: 60
- Plant response rating, Windgrass [3, 15]: 80
- Plant response rating, Windgrass [3, 16]: 85
- Plant response rating (scale of 0 to 100), Windgrass ([3]; Preemergence, 31 g ai/ha): 55
- Plant response rating (scale of 0 to 100), Windgrass ([3]; Preemergence, 62 g ai/ha): 70
- Plant response rating, Windgrass [3, 17]: 95
- Plant response rating, Windgrass [3, 18]: 100
- Plant response rating, Windgrass [3, 19]: 70
- Blackgrass plant response rating [4, 14]: 75
- Plant response rating, Blackgrass [4, 15]: 90
- Plant response rating, Blackgrass [4, 16]: 90
- Plant response rating (scale of 0 to 100), Blackgrass ([4]; Preemergence, 31 g ai/ha): 75
- Plant response rating, Blackgrass ([4]; Preemergence, 62 g ai/ha, scale 0 to 100 (0 no effect, 100 complete control)): 80
- Plant response rating, Blackgrass [4, 17]: 85
- Plant response rating, Blackgrass [4, 18]: 85
- Plant response rating, Blackgrass [4, 19]: 80
- Ryegrass, Italian plant response rating [5, 14]: 80
- Plant response rating, Ryegrass, Italian [5, 15]: 85
- Plant response rating, Ryegrass, Italian [5, 16]: 90
- Plant response rating (scale of 0 to 100), Ryegrass, Italian ([5]; Preemergence, 31 g ai/ha): 55
- Plant response rating (scale of 0 to 100), Ryegrass, Italian ([5]; Preemergence, 62 g ai/ha): 80
- Plant response rating, Ryegrass, Italian [5, 17]: 85
- Plant response rating, Ryegrass, Italian [5, 18]: 90
- Plant response rating, Ryegrass, Italian [5, 19]: 85
- Field Poppy plant response rating [6, 14]: 70
- Plant response rating, Field Poppy [6, 15]: 80
- Plant response rating, Field Poppy [6, 16]: 95
- Plant response rating, Field Poppy [6, 18]: 95
- Plant response rating, Field Poppy [6, 19]: 90
- Wheat, Spring plant response rating [7, 14]: 0
- Plant response rating, Wheat, Spring [7, 15]: 15
- Plant response rating, Wheat, Spring [7, 16]: 20
- Plant response rating (scale of 0 to 100), Wheat, Spring ([7]; Preemergence, 31 g ai/ha): 0
- Plant response rating (scale of 0 to 100), Wheat, Spring ([7]; Preemergence, 62 g ai/ha): 0
- Plant response rating, Wheat, Spring [7, 17]: 15
- Plant response rating, Wheat, Spring [7, 18]: 40
- Plant response rating, Wheat, Spring [7, 19]: 0
- Chickweed plant response rating [8, 14]: 90
- Plant response rating, Chickweed [8, 15]: 100
- Plant response rating, Chickweed [8, 16]: 100
- Plant response rating (scale of 0 to 100), Chickweed ([8]; Preemergence, 31 g ai/ha): 100
- Plant response rating (scale of 0 to 100), Chickweed ([8]; Preemergence, 62 g ai/ha): 100
- Plant response rating, Chickweed [8, 17]: 100
- Plant response rating, Chickweed [8, 18]: 100
- Plant response rating, Chickweed [8, 19]: 100
- Oilseed Rape plant response rating [9, 14]: 65
- Plant response rating, Oilseed Rape [9, 15]: 70
- Plant response rating, Oilseed Rape [9, 16]: 80
- Plant response rating (scale of 0 to 100), Oilseed Rape ([9]; Preemergence, 31 g ai/ha): 0
- Plant response rating (scale of 0 to 100), Oilseed Rape ([9]; Preemergence, 62 g ai/ha): 0
- Plant response rating, Oilseed Rape [9, 17]: 20
- Plant response rating, Oilseed Rape [9, 18]: 30
- Plant response rating, Oilseed Rape [9, 19]: 70
- Pigweed plant response rating [10, 14]: 75
- Plant response rating, Pigweed [10, 15]: 85
- Plant response rating, Pigweed [10, 16]: 85
- Plant response rating (scale of 0 to 100), Pigweed ([10]; Preemergence, 31 g ai/ha): 95
- Plant response rating (scale of 0 to 100), Pigweed ([10]; Preemergence, 62 g ai/ha): 100
- Plant response rating, Pigweed [10, 17]: 100
- Plant response rating, Pigweed [10, 18]: 100
- Plant response rating, Pigweed [10, 19]: 80
- Wheat, Winter plant response rating [11, 14]: 0
- Plant response rating, Wheat, Winter [11, 15]: 0
- Plant response rating, Wheat, Winter [11, 16]: 10
- Plant response rating (scale of 0 to 100), Wheat, Winter ([11]; Preemergence, 31 g ai/ha): 0
- Plant response rating (scale of 0 to 100), Wheat, Winter ([11]; Preemergence, 62 g ai/ha): 0
- Plant response rating, Wheat, Winter [11, 17]: 5
- Plant response rating, Wheat, Winter [11, 18]: 15
- Plant response rating, Wheat, Winter [11, 19]: 0
- Deadnettle plant response rating [12, 14]: 10
- Plant response rating, Deadnettle [12, 15]: 40
- Plant response rating, Deadnettle [12, 16]: 45
- Plant response rating (scale of 0 to 100), Deadnettle ([12]; Preemergence, 31 g ai/ha): 0
- Plant response rating (scale of 0 to 100), Deadnettle ([12]; Preemergence, 62 g ai/ha): 0
- Plant response rating, Deadnettle [12, 17]: 10
- Plant response rating, Deadnettle [12, 18]: 35
- Plant response rating, Deadnettle [12, 19]: 15
- Radish, Wild plant response rating [13, 14]: 60
- Plant response rating, Radish, Wild [13, 15]: 75
- Plant response rating, Radish, Wild [13, 16]: 80
- Plant response rating (scale of 0 to 100), Radish, Wild ([13]; Preemergence, 31 g ai/ha): 0
- Plant response rating (scale of 0 to 100), Radish, Wild ([13]; Preemergence, 62 g ai/ha): 25
- Plant response rating, Radish, Wild [13, 17]: 100
- Plant response rating, Radish, Wild [13, 18]: 100
- Plant response rating, Radish, Wild [13, 19]: 65
